From paper PMC10949010, “A myo-inositol dehydrogenase involved in aminocyclitol biosynthesis of hygromycin A” (Beilstein Journal of Organic Chemistry, 2024)

Legend:
Hyg17 = target: T1, Hyg17 (Streptomyces leeuwenhoekii, UniProt A0A0F7VN41); test: NADH formation, absorbance at […] nm, initial rates […]-5 min; type: biochemical; details: 100 mM CAPS, 50 mM NaCl, pH 10.5, 25 °C
T1 construct: cloned NdeI/XhoI in pTip-QC1, expressed in Rhodococcus jostii RHA1, Ni-NTA and size exclusion; primers encode N-terminus MTVAVVG and C-terminus SVPVAP before LE (XhoI)
T1 sequence (A0A0F7VN41 whole entry): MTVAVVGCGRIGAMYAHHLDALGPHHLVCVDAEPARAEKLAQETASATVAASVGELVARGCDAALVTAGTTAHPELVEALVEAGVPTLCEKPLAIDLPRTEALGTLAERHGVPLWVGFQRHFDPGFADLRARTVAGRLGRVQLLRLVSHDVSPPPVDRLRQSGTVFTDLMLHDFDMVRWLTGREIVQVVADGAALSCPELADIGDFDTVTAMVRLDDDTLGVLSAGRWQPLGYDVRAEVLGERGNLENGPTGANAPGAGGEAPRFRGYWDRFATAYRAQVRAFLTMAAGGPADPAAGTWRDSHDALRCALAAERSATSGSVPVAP

BsIDH = target: T2, BsIDH (Bacillus subtilis, UniProt P26935); test: thin-layer chromatography of ketone product; type: biochemical; details: 10 mM myo-inositol, 10 mM NAD+, 100 mM CAPS, 50 mM NaCl, pH 10.5
T2 construct: gene iolG; codon-optimised synthetic gene in pET28a, expressed in E. coli BL21 star (DE3), Ni-NTA and size exclusion
T2 sequence (P26935 whole entry): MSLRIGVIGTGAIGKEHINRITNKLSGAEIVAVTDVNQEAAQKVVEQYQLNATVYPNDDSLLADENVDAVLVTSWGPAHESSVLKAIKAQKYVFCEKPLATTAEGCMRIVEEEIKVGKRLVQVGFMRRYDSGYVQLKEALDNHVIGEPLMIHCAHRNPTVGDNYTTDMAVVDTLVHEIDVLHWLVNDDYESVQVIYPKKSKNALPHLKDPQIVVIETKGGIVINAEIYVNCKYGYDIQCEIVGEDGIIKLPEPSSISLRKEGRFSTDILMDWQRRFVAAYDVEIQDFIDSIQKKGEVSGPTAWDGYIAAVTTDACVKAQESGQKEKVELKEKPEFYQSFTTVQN

SMILES | Km (Hyg17; 10 mM myo-inositol) [mM] | Km (Hyg17; 10 mM NAD+) [mM] | thin-layer chromatography of ketone product (BsIDH)
NC(=O)c1ccc[n+]([C@@H]2O[C@H](COP(=O)(O)OP(=O)(O)OC[C@H]3O[C@@H](n4cnc5c(N)ncnc54)[C@H](O)[C@@H]3O)[C@@H](O)[C@H]2O)c1 [NAD^+] | 4.2 ± 0.49 |  | 
O[C@H]1[C@H](O)[C@@H](O)[C@H](O)[C@@H](O)[C@H]1O [myo-inositol] |  | 9 ± 1.1 | We found that both enzymes generated a ketone product with identical retention factors
O[C@H]1[C@H](O)[C@@H](O)[C@H](O)[C@@H](O)[C@@H]1O [scyllo-inositol] |  | 20.3 ± 3.3 | 
